Experimental data taken from BindingDB's records for patent US11466047 (Merck Sharp & Dohme, 2022).

Molecular target: T1, Stimulator of interferon genes protein [R71H,G230A,H232R,R293Q] (Homo sapiens, UniProt Q86WV6, G230A/H232R/R293Q/R71H)
T1 construct: gene STING1
Test: 3H-cGAMP Filtration Binding Assay
Experimental: The compounds were serially titrated by the Hamilton STARPlus CORE in a 96-well plate (Greiner, #651201) using a 1:3 ten-point dose response format. After compound preparation, a 2.2 ug/ml working concentration of STING membrane (SEQ. ID. No. 1) was prepared by diluting concentrated membrane into assay buffer (lx PBS; Invitrogen #SH30028.02) and douncing 7× using a manual tissue homogenizer (Wheaton, #357546). 148 uL of prepared membrane was then manually added to each well of a 96-well deep-well polypropylene plate (Fisher Scientific, #12-566-121). Following membrane addition, 2 uL of either titrated test compound, DMSO control (Sigma #276855), or cold cGAMP control was added to the appropriate wells using a BIOMEK FX. Compound and membrane then preincubated for 60 min at RT to allow compound binding to equilibrate. Following equilibration, 8 nM of [3H]c-GAMP ligand was prepared by diluting into assay buffer, and 50 uL of this working stock was then manually added to each well of the assay plate. Plates were then incubated at RT for 60 min, and the contents of each assay plate were then filtered through a 96-well GF/B filter plate (PerkinElmer, #6005250) using a TOMTEC MACH III Cell Harvester equipped with 20 mM HEPES buffer (Fisher Scientific, #BP299500). […] Tritium levels for each reaction well were then measured using a PerkinElmer TopCount plate reader.

T1 sequence (Q86WV6 whole entry R71H/G230A/H232R/R293Q, looked up): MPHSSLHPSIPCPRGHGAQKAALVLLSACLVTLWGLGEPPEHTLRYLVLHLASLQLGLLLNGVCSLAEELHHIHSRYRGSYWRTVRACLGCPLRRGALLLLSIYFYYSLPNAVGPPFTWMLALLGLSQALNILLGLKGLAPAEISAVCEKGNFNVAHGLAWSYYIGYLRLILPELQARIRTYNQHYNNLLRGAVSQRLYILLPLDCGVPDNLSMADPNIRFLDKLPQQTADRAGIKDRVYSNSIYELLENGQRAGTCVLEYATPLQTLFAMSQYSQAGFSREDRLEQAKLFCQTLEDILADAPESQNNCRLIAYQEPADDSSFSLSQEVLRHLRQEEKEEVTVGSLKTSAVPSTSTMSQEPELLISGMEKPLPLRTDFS

SMILES: Nc1nc2c(ncn2[C@@H]2O[C@@H]3COP(=S)(S)O[C@H]4[C@H](F)[C@H](n5cnc6c(=O)[nH]cnc65)O[C@@H]4COP(O)(=S)O[C@@H]2[C@@H]3F)c(=O)[nH]1 (stereo partly specified) [US11466047, Example 27]
- EC50: < 1 nM
